Laboratory results from ChEMBL document CHEMBL1201862, “PubChem BioAssay data set” (2004).
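Tested at 5 concentrations; 48 h exposure; 96-well plates; endpoints linearly interpolated, else capped at highest concentration. The concentration for 50% growth inhibition is given as GI50.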 Active and inactive are the calls of the source. No stated cut-off is given here; in the data, active = GI50 up to about 1.1 µM and inactive = higher.

Legend:
Experiment in all cases: NCI anticancer screen, dose series, 48 h
NCI-H226 = test system: NCI-H226
COLO 205 = test system: COLO 205
DLD-1 = test system: DLD-1
SNB-75 = test system: SNB-75
UACC-62 = test system: UACC-62
SW-620 = test system: SW-620
NCI-H23 = test system: NCI-H23
KM-20L2 = test system: KM-20L2
SNB-19 = test system: SNB-19
SK-OV-3 = test system: SK-OV-3
TK-10 = test system: TK-10
SK-MEL-28 = test system: SK-MEL-28
HOP-92 = test system: HOP-92
SF-539 = test system: SF-539
MOLT-4 = test system: MOLT-4
CAKI-1 = test system: CAKI-1
OVCAR-3 = test system: OVCAR-3
HCT-15 = test system: HCT-15
SF-268 = test system: SF-268
DMS-273 = test system: DMS-273
786-0 = test system: 786-0
OVCAR-4 = test system: OVCAR-4
SF-295 = test system: SF-295
SN12C = test system: SN12C
UACC-257 = test system: UACC-257
NCI-H460 = test system: NCI-H460
Malme-3M = test system: Malme-3M
HCC 2998 = test system: HCC 2998
KM12 = test system: KM12
HOP-62 = test system: HOP-62
DMS-114 = test system: DMS-114
K562 = test system: K562
RPMI-8226 = test system: RPMI-8226
SNB-78 = test system: SNB-78
U-251 = test system: U-251
M14 = test system: M14
RXF 631 = test system: RXF 631
A498 = test system: A498
SK-MEL-5 = test system: SK-MEL-5
LXFL 529 = test system: LXFL 529
NCI-H522 = test system: NCI-H522
M19-MEL = test system: M19-MEL
HT-29 = test system: HT-29
ACHN = test system: ACHN
IGROV-1 = test system: IGROV-1
HOP-18 = test system: HOP-18
OVCAR-8 = test system: OVCAR-8
OVCAR-5 = test system: OVCAR-5
HL-60 = test system: HL-60
A549 = test system: A549
HCT-116 = test system: HCT-116
EKVX = test system: EKVX
UO-31 = test system: UO-31
CCRF-CEM = test system: CCRF-CEM
SK-MEL-2 = test system: SK-MEL-2
LOX IMVI = test system: LOX IMVI
RXF 393 = test system: RXF 393

Measured: GI50

Sc1nnc(COc2ccc(Cl)cc2)o1
inactive: NCI-H226 > 100 µM | COLO 205 > 100 µM | DLD-1 > 100 µM | SNB-75 > 100 µM | UACC-62 > 100 µM | SW-620 15.5 µM | NCI-H23 > 100 µM | KM-20L2 > 100 µM | SNB-19 > 100 µM | SK-OV-3 > 100 µM | TK-10 > 100 µM | SK-MEL-28 > 100 µM | HOP-92 84.3 µM | SF-539 > 100 µM | MOLT-4 > 100 µM | CAKI-1 > 100 µM | OVCAR-3 > 100 µM | SF-268 > 100 µM | DMS-273 > 100 µM | 786-0 > 100 µM | OVCAR-4 > 100 µM | SF-295 > 100 µM | SN12C > 100 µM | UACC-257 > 100 µM | NCI-H460 > 100 µM | Malme-3M > 100 µM | HCC 2998 > 100 µM | KM12 > 100 µM | HOP-62 > 100 µM | DMS-114 > 100 µM | K562 > 100 µM | RPMI-8226 > 100 µM | SNB-78 > 100 µM | U-251 > 100 µM | M14 > 100 µM | RXF 631 > 100 µM | A498 > 100 µM | SK-MEL-5 > 100 µM | LXFL 529 > 100 µM | NCI-H522 > 100 µM | M19-MEL > 100 µM | HT-29 > 100 µM | ACHN > 100 µM | IGROV-1 > 100 µM | HOP-18 > 100 µM | OVCAR-8 > 100 µM | OVCAR-5 > 100 µM | HL-60 > 100 µM | A549 > 100 µM | HCT-116 > 100 µM | EKVX > 100 µM | UO-31 > 100 µM | CCRF-CEM > 100 µM
31.2 µM: HCT-15

CN(C)CCNC(=O)c1cccc2c1nc(-c1ccccc1)c1ccccc12
2.68 µM: HCT-15
inactive: NCI-H226 2.83 µM | COLO 205 3.48 µM | DLD-1 2.33 µM | SNB-75 6.76 µM | UACC-62 11.9 µM | SW-620 2.4 µM | NCI-H23 6.65 µM | SNB-19 11.3 µM | SK-OV-3 6.24 µM | TK-10 3.93 µM | SK-MEL-28 9.1 µM | HOP-92 2.83 µM | SF-539 2.19 µM | CAKI-1 3.74 µM | OVCAR-3 8.09 µM | SF-268 5.79 µM | DMS-273 2.91 µM | 786-0 3.97 µM | OVCAR-4 5.45 µM | SF-295 4.67 µM | SN12C 3.01 µM | UACC-257 1.73 µM | SK-MEL-2 11.1 µM | HCC 2998 3.82 µM | KM12 6.19 µM | HOP-62 4.27 µM | K562 2.17 µM | SNB-78 10.4 µM | U-251 5 µM | M14 2.07 µM | SK-MEL-5 2.13 µM | LOX IMVI 1.47 µM | M19-MEL 5.2 µM | HT-29 3.35 µM | ACHN 2.88 µM | IGROV-1 3.16 µM | HOP-18 14.7 µM | OVCAR-8 4.43 µM | OVCAR-5 4.66 µM | HL-60 1.26 µM | HCT-116 2.69 µM | RXF 393 2.58 µM | EKVX 12.9 µM | UO-31 1.82 µM | CCRF-CEM 1.61 µM
active: MOLT-4 0.323 µM | NCI-H460 0.4 µM | RXF 631 1.05 µM | A498 0.91 µM | A549 1.07 µM
